Reference: PMC10907298 (Nature chemical biology, 2023)

Molecular target: T1, mouse STING (Mus musculus, UniProt Q3TBT3)
T1 sequence (Q3TBT3 1-378): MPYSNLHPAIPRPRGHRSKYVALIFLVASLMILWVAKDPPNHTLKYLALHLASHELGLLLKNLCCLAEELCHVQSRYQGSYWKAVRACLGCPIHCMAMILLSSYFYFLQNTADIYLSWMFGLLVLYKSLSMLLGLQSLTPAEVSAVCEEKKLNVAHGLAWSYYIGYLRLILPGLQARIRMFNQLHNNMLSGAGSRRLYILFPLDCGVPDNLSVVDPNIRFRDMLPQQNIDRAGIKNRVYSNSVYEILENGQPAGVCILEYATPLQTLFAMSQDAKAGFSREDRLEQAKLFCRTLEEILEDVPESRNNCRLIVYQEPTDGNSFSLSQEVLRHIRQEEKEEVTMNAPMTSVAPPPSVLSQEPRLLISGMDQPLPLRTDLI
Assay: ISRE reporter assay with STING co-transfection in HEK293T cells
Type: cell-based

ISRE reporter activity, mean (mSTING WT, Log[μM] 0.3, Figure S1g): -5.609 | ISRE reporter activity, mean (mSTING WT, Log[μM] 1, Figure S1g): -12.1937 | ISRE reporter activity, mean (mSTING WT, Log[μM] 1.7, Figure S1g): -31.614 | ISRE reporter activity, mean (mSTING WT, Log[μM] -0.4, Figure S1g): -7.536 | ISRE reporter activity, mean (mSTING WT, Log[μM] -1.1, Figure S1g): -5.586 | ISRE reporter activity, mean (mSTING WT, Log[μM] -1.8, Figure S1g): -3.154 | ISRE reporter activity, mean (mSTING, Log[μM] 0.2): 0.9 | ISRE reporter activity, mean (mSTING, Log[μM] 0.5): 1 | ISRE reporter activity, mean (mSTING, Log[μM] 0.8): 1.1 | ISRE reporter activity, mean (mSTING, Log[μM] 1.1): 0.8 | ISRE reporter activity, mean (mSTING, Log[μM] 1.4): 0.9 | ISRE reporter activity, mean (mSTING, Log[μM] -0.1): 0.9 | ISRE reporter activity, mean (mSTING, Log[μM] -0.4): 1.1 | ISRE reporter activity, mean (mSTING, Log[μM] -0.7): 1 | ISRE reporter activity, mean (mSTING, Log[μM] -1): 1
SMILES: COc1cc(C(=O)O)ccc1NCc1ccc(C2(C(C)(C)C)OCC(C)(C)CO2)cc1 [NVS-STG2]
